Reference: ChEMBL document CHEMBL3576831, “Discovery of a Selective TRPM8 Antagonist with Clinical Efficacy in Cold-Related Pain” (ACS Med Chem Lett, 2015)
Blank lines part the entries; values can stand above or below the compound they belong to. Activity calls are given as the source filed them. No cut-off for these calls is given here.

Experiments:
[1] = molecular target: T1, Transient receptor potential cation channel subfamily M member 8 (Homo sapiens, UniProt Q7Z2W7); test: Antagonist activity against human recombinant TRPM8 expressed in CHO T-rex cells assessed as inhibition of WS12-induced calcium response pre-incubated for 20 mins before WS12 addition; format: cell-based
T1 sequence (Q7Z2W7 whole entry): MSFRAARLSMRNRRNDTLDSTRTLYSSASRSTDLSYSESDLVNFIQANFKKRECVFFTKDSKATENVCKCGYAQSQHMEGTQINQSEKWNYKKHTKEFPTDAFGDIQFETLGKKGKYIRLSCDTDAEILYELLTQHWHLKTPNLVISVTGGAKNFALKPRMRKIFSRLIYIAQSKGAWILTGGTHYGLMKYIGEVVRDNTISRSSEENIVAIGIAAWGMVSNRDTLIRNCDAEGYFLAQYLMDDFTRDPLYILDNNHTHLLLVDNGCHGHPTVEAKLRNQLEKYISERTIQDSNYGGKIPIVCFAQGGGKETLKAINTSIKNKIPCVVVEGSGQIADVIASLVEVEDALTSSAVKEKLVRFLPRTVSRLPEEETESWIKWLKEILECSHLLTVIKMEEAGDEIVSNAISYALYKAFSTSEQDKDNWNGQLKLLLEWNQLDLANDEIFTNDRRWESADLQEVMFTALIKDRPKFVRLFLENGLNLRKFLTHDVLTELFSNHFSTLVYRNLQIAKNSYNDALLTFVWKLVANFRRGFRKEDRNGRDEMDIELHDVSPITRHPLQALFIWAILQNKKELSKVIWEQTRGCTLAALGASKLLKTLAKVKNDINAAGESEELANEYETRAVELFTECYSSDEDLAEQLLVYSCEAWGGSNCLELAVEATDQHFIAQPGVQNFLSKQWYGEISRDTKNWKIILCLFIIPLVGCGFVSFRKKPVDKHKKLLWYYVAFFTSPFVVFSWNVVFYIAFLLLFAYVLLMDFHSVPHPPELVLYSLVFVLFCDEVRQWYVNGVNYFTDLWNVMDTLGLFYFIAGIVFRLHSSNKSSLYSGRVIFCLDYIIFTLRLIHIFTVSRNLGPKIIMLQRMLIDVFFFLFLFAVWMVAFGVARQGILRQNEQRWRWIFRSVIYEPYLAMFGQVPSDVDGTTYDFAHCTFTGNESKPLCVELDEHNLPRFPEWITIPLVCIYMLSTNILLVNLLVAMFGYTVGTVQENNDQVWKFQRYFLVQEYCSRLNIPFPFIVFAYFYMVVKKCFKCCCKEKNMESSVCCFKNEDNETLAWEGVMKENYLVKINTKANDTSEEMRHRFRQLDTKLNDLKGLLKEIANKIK

[2] = Lipophilicity, log D of the compound; format: physicochemical; details: octanol/water
[3] = Intrinsic clearance in human liver microsomes; format: ADME; details: read-out: CLH
Hepatocyte = test: Intrinsic clearance in human hepatocytes assessed per million cells; format: ADME, cell-based
Liver microsome = test: Intrinsic clearance in rat liver microsomes; format: ADME
CYP3A4 = CYP3A4 (Homo sapiens, UniProt P08684); test: Inhibition of CYP3A4 (unknown origin) at 3 uM; format: ADME
CYP3A4, sequence (P08684 whole entry): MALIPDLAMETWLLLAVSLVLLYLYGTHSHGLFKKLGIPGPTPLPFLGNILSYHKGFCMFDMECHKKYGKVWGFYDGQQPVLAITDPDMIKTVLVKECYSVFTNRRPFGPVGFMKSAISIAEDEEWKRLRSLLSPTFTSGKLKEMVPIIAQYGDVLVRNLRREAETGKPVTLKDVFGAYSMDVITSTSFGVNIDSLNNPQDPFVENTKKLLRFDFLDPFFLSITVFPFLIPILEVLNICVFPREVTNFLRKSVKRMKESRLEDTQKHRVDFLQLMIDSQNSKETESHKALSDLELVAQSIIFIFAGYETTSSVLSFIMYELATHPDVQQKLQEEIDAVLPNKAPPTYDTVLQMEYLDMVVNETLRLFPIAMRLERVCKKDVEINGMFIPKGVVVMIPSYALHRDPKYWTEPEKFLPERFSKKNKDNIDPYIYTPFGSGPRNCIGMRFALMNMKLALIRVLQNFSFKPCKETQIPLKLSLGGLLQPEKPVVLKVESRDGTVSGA

CYP2D6 = CYP2D6 (Homo sapiens, UniProt P10635); test: Inhibition of CYP2D6 (unknown origin) at 3 uM; format: ADME
CYP2D6, sequence (P10635 whole entry): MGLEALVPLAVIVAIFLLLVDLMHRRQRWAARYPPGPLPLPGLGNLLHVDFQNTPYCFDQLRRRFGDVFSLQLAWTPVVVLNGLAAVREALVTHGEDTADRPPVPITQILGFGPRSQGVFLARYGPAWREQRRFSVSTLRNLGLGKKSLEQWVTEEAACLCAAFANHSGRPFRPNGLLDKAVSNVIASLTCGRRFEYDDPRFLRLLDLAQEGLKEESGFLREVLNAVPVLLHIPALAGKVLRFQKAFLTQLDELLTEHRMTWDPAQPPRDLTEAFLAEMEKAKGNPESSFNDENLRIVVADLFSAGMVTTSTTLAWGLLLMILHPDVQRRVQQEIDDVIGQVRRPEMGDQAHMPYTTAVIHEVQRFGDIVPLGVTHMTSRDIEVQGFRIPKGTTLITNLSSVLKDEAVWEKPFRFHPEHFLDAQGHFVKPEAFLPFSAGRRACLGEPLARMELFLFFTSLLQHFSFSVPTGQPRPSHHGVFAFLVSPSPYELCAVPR

CYP1A2 = molecular target: T2, CYP1A2 (Homo sapiens, UniProt P05177); test: Inhibition of CYP1A2 (unknown origin) at 3 uM; format: ADME
T2 sequence (P05177 whole entry): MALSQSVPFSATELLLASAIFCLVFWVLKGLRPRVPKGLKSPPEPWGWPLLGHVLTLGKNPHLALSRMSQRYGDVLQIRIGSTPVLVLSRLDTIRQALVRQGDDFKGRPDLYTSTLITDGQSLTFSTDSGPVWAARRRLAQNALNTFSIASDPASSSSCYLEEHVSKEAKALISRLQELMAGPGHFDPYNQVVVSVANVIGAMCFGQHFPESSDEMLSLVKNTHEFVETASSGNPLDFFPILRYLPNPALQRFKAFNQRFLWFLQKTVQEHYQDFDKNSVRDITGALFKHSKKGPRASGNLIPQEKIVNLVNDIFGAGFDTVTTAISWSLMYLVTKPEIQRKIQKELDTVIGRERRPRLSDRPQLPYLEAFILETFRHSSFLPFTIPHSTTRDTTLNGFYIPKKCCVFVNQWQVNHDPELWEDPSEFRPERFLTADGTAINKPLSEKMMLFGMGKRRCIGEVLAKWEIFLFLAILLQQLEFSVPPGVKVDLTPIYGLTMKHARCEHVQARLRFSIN

CYP2C8 = molecular target: T3, CYP2C8 (Homo sapiens, UniProt P10632); test: Inhibition of CYP2C8 (unknown origin) at 3 uM; format: ADME
T3 sequence (P10632 whole entry): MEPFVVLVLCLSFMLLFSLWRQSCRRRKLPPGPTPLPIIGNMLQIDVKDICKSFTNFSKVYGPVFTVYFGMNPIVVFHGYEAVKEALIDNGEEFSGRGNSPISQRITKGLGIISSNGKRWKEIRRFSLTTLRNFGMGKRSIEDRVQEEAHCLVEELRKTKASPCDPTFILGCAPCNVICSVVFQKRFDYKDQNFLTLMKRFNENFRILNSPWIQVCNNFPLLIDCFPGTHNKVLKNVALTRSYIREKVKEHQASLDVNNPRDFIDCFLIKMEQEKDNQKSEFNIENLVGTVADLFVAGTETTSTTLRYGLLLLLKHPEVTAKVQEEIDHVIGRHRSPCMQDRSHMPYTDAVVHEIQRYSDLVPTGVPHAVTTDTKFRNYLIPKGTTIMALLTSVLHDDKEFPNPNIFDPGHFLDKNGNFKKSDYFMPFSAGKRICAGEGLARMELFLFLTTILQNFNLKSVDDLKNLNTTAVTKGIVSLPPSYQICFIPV

CYP2C9 = CYP2C9 (Homo sapiens, UniProt P11712); test: Inhibition of CYP2C9 (unknown origin) at 3 uM; format: ADME
CYP2C9, sequence (P11712 whole entry): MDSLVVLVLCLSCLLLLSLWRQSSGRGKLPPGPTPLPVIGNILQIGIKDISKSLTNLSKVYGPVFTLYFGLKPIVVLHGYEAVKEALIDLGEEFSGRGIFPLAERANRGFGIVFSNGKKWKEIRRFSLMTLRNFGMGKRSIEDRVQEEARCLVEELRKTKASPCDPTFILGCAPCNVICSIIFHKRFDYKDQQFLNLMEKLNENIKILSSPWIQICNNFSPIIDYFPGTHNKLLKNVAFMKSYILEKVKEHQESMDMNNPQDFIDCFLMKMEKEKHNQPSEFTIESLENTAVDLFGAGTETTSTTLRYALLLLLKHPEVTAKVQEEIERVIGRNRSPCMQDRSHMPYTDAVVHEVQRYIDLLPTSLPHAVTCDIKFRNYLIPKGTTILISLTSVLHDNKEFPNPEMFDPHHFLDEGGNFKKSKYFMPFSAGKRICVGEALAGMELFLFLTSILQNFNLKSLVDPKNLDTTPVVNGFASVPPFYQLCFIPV

[4] = molecular target: T4, Voltage-gated inwardly rectifying potassium channel KCNH2 (Homo sapiens, UniProt Q12809); test: Inhibition of dofetilide binding to human ERG
T4 sequence (Q12809 whole entry): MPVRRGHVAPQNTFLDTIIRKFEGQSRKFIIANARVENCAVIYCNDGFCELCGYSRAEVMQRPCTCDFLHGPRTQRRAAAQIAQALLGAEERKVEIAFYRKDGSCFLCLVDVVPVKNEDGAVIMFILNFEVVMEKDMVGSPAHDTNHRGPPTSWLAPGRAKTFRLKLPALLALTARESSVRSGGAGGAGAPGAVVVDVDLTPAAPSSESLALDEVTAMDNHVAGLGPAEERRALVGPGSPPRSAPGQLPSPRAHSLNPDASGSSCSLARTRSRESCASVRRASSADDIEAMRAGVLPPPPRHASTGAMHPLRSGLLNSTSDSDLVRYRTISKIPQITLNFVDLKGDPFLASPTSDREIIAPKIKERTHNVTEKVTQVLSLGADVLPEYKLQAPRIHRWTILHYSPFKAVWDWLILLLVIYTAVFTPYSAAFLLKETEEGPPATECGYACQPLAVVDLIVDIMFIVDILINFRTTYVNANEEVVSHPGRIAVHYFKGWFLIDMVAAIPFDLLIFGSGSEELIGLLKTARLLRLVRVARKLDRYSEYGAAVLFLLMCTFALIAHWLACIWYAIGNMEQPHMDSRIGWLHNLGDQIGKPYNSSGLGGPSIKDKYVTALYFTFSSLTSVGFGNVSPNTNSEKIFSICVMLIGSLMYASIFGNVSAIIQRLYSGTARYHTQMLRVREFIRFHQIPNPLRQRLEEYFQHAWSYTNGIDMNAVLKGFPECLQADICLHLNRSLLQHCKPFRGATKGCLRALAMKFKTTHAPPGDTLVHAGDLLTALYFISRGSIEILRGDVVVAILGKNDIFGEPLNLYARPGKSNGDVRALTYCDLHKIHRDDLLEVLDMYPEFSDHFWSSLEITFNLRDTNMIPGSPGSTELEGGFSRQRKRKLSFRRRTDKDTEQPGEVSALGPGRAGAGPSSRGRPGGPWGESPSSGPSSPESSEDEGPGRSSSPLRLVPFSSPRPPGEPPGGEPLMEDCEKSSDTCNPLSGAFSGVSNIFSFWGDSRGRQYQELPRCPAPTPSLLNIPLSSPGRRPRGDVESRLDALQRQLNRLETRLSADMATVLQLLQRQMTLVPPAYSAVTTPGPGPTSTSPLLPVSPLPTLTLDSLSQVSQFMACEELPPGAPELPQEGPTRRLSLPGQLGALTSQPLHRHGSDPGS

[5] = molecular target: T1, Transient receptor potential cation channel subfamily M member 8; test: Antagonist activity against human TRPM8 by single cell patch clamp electrophysiology
Homo sapiens [6] = species: Homo sapiens; test: Selectivity for human TRPM8 over TRPV1 (unknown origin)
Homo sapiens [7] = species: Homo sapiens; test: Selectivity for human TRPM8 over TRPA1 (unknown origin)
[8] = molecular target: T4, Voltage-gated inwardly rectifying potassium channel KCNH2; test: Inhibition of human ERG
[9] = Permeability in RRCK cells; format: ADME, cell-based, Canis lupus familiaris, MDCKII-LE; details: dog, MDCK; read-out: permeability
[10] = Efflux ratio in MDCK cells; format: ADME, cell-based, Canis lupus familiaris; details: dog
[11] = Fraction unbound in human plasma; format: ADME, cell-free
[12] = Fraction unbound in rat plasma; format: ADME, cell-free
[13] = Fraction unbound in guinea pig plasma; format: ADME, cell-free, Cavia porcellus
Cavia porcellus = species: Cavia porcellus; test: Analgesic effect in guinea pig model of cold-induced bladder contractility assessed as maximum unbound concentration to causing therapeutic efficacy; format: functional
Rattus norvegicus [14] = species: Rattus norvegicus; test: Drug metabolism in bile-duct cannulated rat assessed as formation of acyl glucuronide formation; format: ADME, organism-based; details: in vivo
Homo sapiens [15] = test: Analgesic effect in human at 900 mg administered as single dose by cold pressor test; format: functional, organism-based
Homo sapiens [16] = test: Toxicity in human assessed as effect on core body temperature up to 900 mg administered as single dose during cold pressor test; format: organism-based; details: in vivo
Homo sapiens [17] = test: Toxicity in human assessed as induction of nontolerated hot sensation localized to mouth, face, upper body, arms and hands at 900 mg administered as single dose during cold pressor test; format: organism-based; details: in vivo
[18] = Clearance in rat; format: ADME, organism-based; details: in vivo
Rattus norvegicus [19] = species: Rattus norvegicus; test: Unbound clearance in rat; format: ADME, organism-based; details: in vivo
[20] = Volume of distribution at steady state in rat; format: ADME, organism-based; details: in vivo, read-out: Vdss
[21] = Half life in rat; format: ADME, organism-based; details: in vivo
[22] = Oral bioavailability in rat at 2 mg/kg; format: ADME, organism-based; details: in vivo
[23] = Oral absorption in rat at 2 mg/kg; format: ADME, organism-based; details: in vivo
[24] = Oral bioavailability in rat at 10 mg/kg; format: ADME, organism-based; details: in vivo
[25] = Oral absorption in rat at 10 mg/kg; format: ADME, organism-based; details: in vivo
[26] = Clearance in beagle dog at 0.2 mg/kg, iv; format: ADME, organism-based, Canis lupus familiaris; details: in vivo
Canis familiaris = test: Unbound clearance in beagle dog at 0.2 mg/kg, iv; format: ADME, organism-based, Canis lupus familiaris; details: in vivo
[27] = Volume of distribution at steady state in beagle dog at 0.2 mg/kg, iv; format: ADME, organism-based, Canis lupus familiaris; details: in vivo, read-out: Vdss
[28] = Half life in beagle dog at 0.2 mg/kg, iv; format: ADME, organism-based, Canis lupus familiaris; details: in vivo
[29] = Oral bioavailability in beagle dog at 20 mg/kg; format: ADME, organism-based, Canis lupus familiaris; details: in vivo
[30] = Oral absorption in beagle dog at 20 mg/kg; format: ADME, organism-based, Canis lupus familiaris; details: in vivo
[31] = Fraction unbound in dog plasma; format: ADME, cell-free, Canis lupus familiaris

Compound: O=C(O)c1cccc(CN(C(=O)c2cnc3ccccc3c2)[C@H](CO)c2ccccc2)c1
IC50 [1]: > 6860 nM

Compound: CC[C@H](c1ccc(C)o1)N(Cc1cccc(C(=O)O)c1)C(=O)c1cnc2ccccc2c1
IC50 [1]: 328 nM

Compound: CC[C@H](c1ccc(F)cc1F)N(Cc1cccc(C(=O)O)c1)C(=O)c1cc2ccccn2n1
IC50 [1]: 123 nM | logD [2]: 1.2 | microsomal CLint [3]: 28 µL/min/mg | hepatocyte intrinsic clearance (Hepatocyte): 48 µL/min/million cells | microsomal CLint (Liver microsome): 41 µL/min/mg | inhibition at 3 µM (CYP3A4): 0% | inhibition at 3 µM (CYP2D6): 0% | inhibition at 3 µM (CYP1A2): 0% | inhibition at 3 µM (CYP2C8): 0% | inhibition at 3 µM (CYP2C9): 0%

Compound: C[C@H](c1ccc(F)cc1F)N(Cc1cccc(C(=O)O)n1)C(=O)c1cc2ccccc2cn1
IC50 [1]: 190 nM | logD [2]: 0.4 | microsomal CLint [3]: 11 µL/min/mg | hepatocyte intrinsic clearance (Hepatocyte): < 2.2 µL/min/million cells | microsomal CLint (Liver microsome): 31 µL/min/mg | inhibition at 3 µM (CYP3A4): 0% | inhibition at 3 µM (CYP2D6): 0% | inhibition at 3 µM (CYP1A2): 0% | inhibition at 3 µM (CYP2C8): 0% | inhibition at 3 µM (CYP2C9): 0%

Compound: O=C(O)c1cccc(CN(Cc2ccc(F)cc2)C(=O)c2cnc3ccccc3c2)c1
IC50 [1]: > 9360 nM

Compound: Cc1ccc(CN(C(=O)c2cnc3ccccc3c2)[C@H](C)c2ccc(F)cc2)cc1C(=O)O
IC50 [1]: > 7820 nM

Compound: CC(C)(c1ccc(F)cc1)N(Cc1cccc(C(=O)O)c1)C(=O)c1cnc2ccccc2c1
IC50 [1]: > 10000 nM

Compound: C[C@H](c1ccc(F)cc1)N(Cc1cc(C(=O)O)ccc1F)C(=O)c1cnc2ccccc2c1
IC50 [1]: 446 nM

The next lines start with results.

IC50 [1]: > 6170 nM
Compound: C[C@H](c1ccc(F)cc1)N(Cc1cccc(C(=O)O)c1)C(=O)c1ccc(Oc2ccccc2)cc1

IC50 [1]: 94 nM | logD [2]: 0.9 | microsomal CLint [3]: 42 µL/min/mg | hepatocyte intrinsic clearance (Hepatocyte): 23 µL/min/million cells | microsomal CLint (Liver microsome): 325 µL/min/mg
Compound: C[C@H](c1ccc(F)cc1)N(Cc1cccc(C(=O)O)c1)C(=O)c1cc2ccccn2n1
Ki [4]: > 9180 nM

IC50 [1]: 307 nM | logD [2]: 0.6 | microsomal CLint (Liver microsome): 113 µL/min/mg
Compound: C[C@H](c1ccc(F)cc1)N(Cc1cccc(C(=O)O)c1)C(=O)c1cn2ccccc2n1
Ki [4]: > 9180 nM

IC50 [1]: 234 nM | logD [2]: 0.9 | microsomal CLint [3]: 23 µL/min/mg | hepatocyte intrinsic clearance (Hepatocyte): 31 µL/min/million cells | microsomal CLint (Liver microsome): 85 µL/min/mg
Compound: C[C@H](c1ccc(F)cc1F)N(Cc1cccc(C(=O)O)c1)C(=O)c1cc2ccccn2n1

IC50 [1]: 181 nM | logD [2]: 1 | microsomal CLint [3]: < 8 µL/min/mg | hepatocyte intrinsic clearance (Hepatocyte): < 15 µL/min/million cells | microsomal CLint (Liver microsome): 17 µL/min/mg | inhibition at 3 µM (CYP3A4): 0% | inhibition at 3 µM (CYP2D6): 0% | inhibition at 3 µM (CYP1A2): 0% | inhibition at 3 µM (CYP2C8): 0% | inhibition at 3 µM (CYP2C9): 0% | IC50 [5]: 103 nM | Selectivity ratio (Homo sapiens [6]): > 100 | Selectivity ratio (Homo sapiens [7]): > 100 | Papp [9]: 6.8 ×10⁻⁶ cm/s | efflux ratio [10]: 4.8 | fraction unbound [11]: 0.012 | fraction unbound [12]: 0.033 | fraction unbound [13]: 0.07 | Drug metabolism (Rattus norvegicus [14]): metabolite_detected | clearance [18]: 19.8 mL/min/kg | CL free (Rattus norvegicus [19]): 618 mL/min/kg | Vd [20]: 6.2 L/kg | half-life [21]: 3.6 h | bioavailability [22]: 29% | Fa [23]: 46% | bioavailability [24]: 62% | Fa [25]: 100% | clearance [26]: 31 mL/min/kg | CL free (Canis familiaris): 462 mL/min/kg | Vd [27]: 7.4 L/kg | half-life [28]: 3.9 h | bioavailability [29]: 92% | Fa [30]: 100% | fraction unbound [31]: 0.067
Compound: C[C@H](c1ccc(F)cc1)N(Cc1cccc(C(=O)O)c1)C(=O)c1cnc2ccccc2c1 [PF-05105679]
Ki [4]: > 15900 nM | IC50 [8]: > 30000 nM | fCmax (Cavia porcellus): 254 nM | Activity (Homo sapiens [15]): Active | Activity (Homo sapiens [16]): Non-toxic | Activity (Homo sapiens [17]): Toxic

IC50 [1]: > 5000 nM
Compound: CC(c1ccc(F)cc1)N(Cc1cccc(C(=O)O)c1)C(=O)C1Cc2ccccc2C1 (racemic)

IC50 [1]: 3280 nM
Compound: C[C@H](c1ccc(F)cc1)N(Cc1ccc(F)c(C(=O)O)c1)C(=O)c1cnc2ccccc2c1
